Test results: ChEMBL document CHEMBL3885861, “Open TG-GATES”

Species: Rattus norvegicus
Test: Open TG-GATES - Regimen: Single
Type: toxicity, organism-based, Sprague-Dawley
Design: regimen Single, gender Male, age 6 weeks
Details: in vivo, po, 1 mg/kg, route gavage, dose level Low; for APTT / Bas / Eos / Fbg / Hb / Ht / Lym / MCH / MCHC / MCV / Mono / Neu / PT / Plat / RBC / Ret / WBC: tissue Blood; for KIDNEY_L / KIDNEY_R / KIDNEY_TOTAL: tissue Kidney; for LIVER: tissue Liver; for A/G / ALP / ALT / AST / BUN / CRE / Ca / Cl / DBIL / GLC / IP / K / LDH / Na / PL / RALB / TBIL / TC / TG / TP / gamma-GTP: tissue Plasma

O=NN(CCCl)C(=O)NC1CCCCC1 [LOMUSTINE] showed a TERMINAL_BW (3 h) of 204.1 g, an APTT (3 h) of 16.5 s and a Bas (3 h) of 0%. It also gave an Eos (3 h) of 0.2%, a Fbg (3 h) of 224.2 mg/dL and a Hb (3 h) of 13.4 g/dL. For the same compound, the Ht (3 h) was 40.4%, the Lym (3 h) was 78.8% and the MCH (3 h) was 21.6 pg. The MCHC (3 h) was 33.2%, the MCV (3 h) was 65.2 fL and the Mono (3 h) was 8.4%. The Neu (3 h) was 12.2%, the PT (3 h) was 11.3 s and the Plat (3 h) was 105.5 x10_4/uL. It also gave an RBC (3 h) of 619 x10_4/ul, a Ret (3 h) of 8.6% and a WBC (3 h) of 119.1 x10_2/uL. It also gave a KIDNEY_L (3 h) of 0.9 g, a KIDNEY_R (3 h) of 0.9 g and a KIDNEY_TOTAL (3 h) of 1.9 g. For the same compound, the LIVER (3 h) was 9.6 g, the A/G (3 h) was 2 and the ALP (3 h) was 970.8 IU/L. The ALT (3 h) was 33.4 IU/L, the AST (3 h) was 60 IU/L and the BUN (3 h) was 11 mg/dL. For the same compound, the CRE (3 h) was 0.5 mg/dL, the Ca (3 h) was 11.4 mg/dL and the Cl (3 h) was 105.8 meq/L. It also gave a DBIL (3 h) of 0.028 mg/dL, a GLC (3 h) of 184.2 mg/dL and an IP (3 h) of 10 mg/dL. It also gave a K (3 h) of 4.8 meq/L, an LDH (3 h) of 82.2 IU/L and a Na (3 h) of 139.8 meq/L. The PL (3 h) was 135.8 mg/dL, the RALB (3 h) was 3.7 g/dL and the TBIL (3 h) was 0.3 mg/dL. For the same compound, the TC (3 h) was 79 mg/dL, the TG (3 h) was 52.4 mg/dL and the TP (3 h) was 5.6 g/dL. The gamma-GTP (3 h) was 1.4 IU/L, the TERMINAL_BW (6 h) was 203.2 g and the APTT (6 h) was 16.9 s. For the same compound, the Bas (6 h) was 0%, the Eos (6 h) was 0.4% and the Fbg (6 h) was 227.8 mg/dL. The Hb (6 h) was 13.4 g/dL, the Ht (6 h) was 40.2% and the Lym (6 h) was 82%. For the same compound, the MCH (6 h) was 21.8 pg, the MCHC (6 h) was 33.3% and the MCV (6 h) was 65.6 fL. The Mono (6 h) was 5.8%, the Neu (6 h) was 11.8% and the PT (6 h) was 12.2 s. It also gave a Plat (6 h) of 96.8 x10_4/uL, an RBC (6 h) of 613.2 x10_4/ul and a Ret (6 h) of 9%. For the same compound, the WBC (6 h) was 116.2 x10_2/uL, the KIDNEY_L (6 h) was 0.9 g and the KIDNEY_R (6 h) was 0.9 g. The KIDNEY_TOTAL (6 h) was 1.9 g, the LIVER (6 h) was 9 g and the A/G (6 h) was 2. For the same compound, the ALP (6 h) was 759.8 IU/L, the ALT (6 h) was 33.2 IU/L and the AST (6 h) was 66.6 IU/L. It also gave a BUN (6 h) of 11.2 mg/dL, a CRE (6 h) of 0.5 mg/dL and a Ca (6 h) of 10.9 mg/dL. For the same compound, the Cl (6 h) was 104.6 meq/L, the DBIL (6 h) was 0.008 mg/dL and the GLC (6 h) was 188.6 mg/dL. For the same compound, the IP (6 h) was 10.5 mg/dL, the K (6 h) was 5.1 meq/L and the LDH (6 h) was 90.2 IU/L. It also gave a Na (6 h) of 140.8 meq/L, a PL (6 h) of 142.8 mg/dL and an RALB (6 h) of 3.7 g/dL. It also gave a TBIL (6 h) of 0.2 mg/dL, a TC (6 h) of 84 mg/dL and a TG (6 h) of 41.2 mg/dL. It also gave a TP (6 h) of 5.5 g/dL, a gamma-GTP (6 h) of 1.4 IU/L and a TERMINAL_BW (9 h) of 200.6 g. It also gave an APTT (9 h) of 16.5 s, a Bas (9 h) of 0% and an Eos (9 h) of 0.6%. For the same compound, the Fbg (9 h) was 220.2 mg/dL, the Hb (9 h) was 13.3 g/dL and the Ht (9 h) was 40.4%. It also gave a Lym (9 h) of 78.6%, an MCH (9 h) of 21.9 pg and an MCHC (9 h) of 32.9%. For the same compound, the MCV (9 h) was 66.4 fL, the Mono (9 h) was 6.6% and the Neu (9 h) was 14.2%. The PT (9 h) was 12.4 s, the Plat (9 h) was 99.4 x10_4/uL and the RBC (9 h) was 608 x10_4/ul. The Ret (9 h) was 9%, the WBC (9 h) was 86.7 x10_2/uL and the KIDNEY_L (9 h) was 0.9 g. The KIDNEY_R (9 h) was 0.9 g, the KIDNEY_TOTAL (9 h) was 1.8 g and the LIVER (9 h) was 8.6 g. The A/G (9 h) was 2.5, the ALP (9 h) was 787 IU/L and the ALT (9 h) was 32 IU/L. The AST (9 h) was 62.6 IU/L, the BUN (9 h) was 8.8 mg/dL and the CRE (9 h) was 0.5 mg/dL. The Ca (9 h) was 10.6 mg/dL, the Cl (9 h) was 105.8 meq/L and the DBIL (9 h) was 0.036 mg/dL. It also gave a GLC (9 h) of 184.6 mg/dL, an IP (9 h) of 10.2 mg/dL and a K (9 h) of 4.6 meq/L. It also gave an LDH (9 h) of 76.6 IU/L, a Na (9 h) of 138.4 meq/L and a PL (9 h) of 127.4 mg/dL. The RALB (9 h) was 3.9 g/dL, the TBIL (9 h) was 0.4 mg/dL and the TC (9 h) was 72.4 mg/dL. The TG (9 h) was 39 mg/dL, the TP (9 h) was 5.5 g/dL and the gamma-GTP (9 h) was 4.2 IU/L. For the same compound, the TERMINAL_BW (24 h) was 218.5 g, the APTT (24 h) was 18.1 s and the Bas (24 h) was 0%. It also gave an Eos (24 h) of 1%, a Fbg (24 h) of 201 mg/dL and a Hb (24 h) of 12.6 g/dL. It also gave a Ht (24 h) of 37.9%, a Lym (24 h) of 80.8% and an MCH (24 h) of 21.8 pg. For the same compound, the MCHC (24 h) was 33.4%, the MCV (24 h) was 65.3 fL and the Mono (24 h) was 5.8%. For the same compound, the Neu (24 h) was 12.6%, the PT (24 h) was 12.2 s and the Plat (24 h) was 94.4 x10_4/uL. It also gave an RBC (24 h) of 580.2 x10_4/ul, a Ret (24 h) of 9% and a WBC (24 h) of 138.2 x10_2/uL. The KIDNEY_L (24 h) was 1 g, the KIDNEY_R (24 h) was 1 g and the KIDNEY_TOTAL (24 h) was 2 g. It also gave an LIVER (24 h) of 10.7 g, an A/G (24 h) of 2.2 and an ALP (24 h) of 961 IU/L. It also gave an ALT (24 h) of 37.6 IU/L, an AST (24 h) of 68.4 IU/L and a BUN (24 h) of 15.8 mg/dL. The CRE (24 h) was 0.5 mg/dL, the Ca (24 h) was 11.1 mg/dL and the Cl (24 h) was 104.6 meq/L. For the same compound, the DBIL (24 h) was 0.018 mg/dL, the GLC (24 h) was 185.4 mg/dL and the IP (24 h) was 7.6 mg/dL. For the same compound, the K (24 h) was 4.8 meq/L, the LDH (24 h) was 100.6 IU/L and the Na (24 h) was 138 meq/L. The PL (24 h) was 144.6 mg/dL, the RALB (24 h) was 3.9 g/dL and the TBIL (24 h) was 0.3 mg/dL. It also gave a TC (24 h) of 76 mg/dL, a TG (24 h) of 98 mg/dL and a TP (24 h) of 5.7 g/dL. The gamma-GTP (24 h) was 1.8 IU/L.
